Among the data in patent publication US9540392B2, “Thienopyrimidines” (BAYER PHARMA AKTIENGESELLSCHAFT, priority 2012, dated 2017) are IC50 values, retold here.

SMILES strings stand for the structures.

The target in the first assay is T1, human full-length MKNK1 (Homo sapiens, UniProt Q9BUB5, T385D).
T1 construct: GST (N); purchased Carna Biosciences 02-145; host or cells: insect cells (baculovirus expression system)
T1 sequence (Q9BUB5 1-424 isoform Q9BUB5-2 T344D): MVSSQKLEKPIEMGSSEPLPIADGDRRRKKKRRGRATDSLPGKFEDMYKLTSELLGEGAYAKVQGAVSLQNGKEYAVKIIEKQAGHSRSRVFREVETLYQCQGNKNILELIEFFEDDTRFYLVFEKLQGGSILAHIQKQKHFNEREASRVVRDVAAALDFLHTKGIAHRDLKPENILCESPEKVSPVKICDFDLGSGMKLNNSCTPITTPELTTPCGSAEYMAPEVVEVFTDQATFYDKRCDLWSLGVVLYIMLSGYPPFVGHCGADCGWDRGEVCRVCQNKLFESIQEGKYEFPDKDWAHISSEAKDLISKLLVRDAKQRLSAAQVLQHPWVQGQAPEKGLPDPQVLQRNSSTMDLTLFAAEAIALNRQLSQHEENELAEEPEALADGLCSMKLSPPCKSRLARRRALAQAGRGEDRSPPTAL
The assay can be described thus: MKNK1 kinase high ATP assay (TR-FRET). It counts as biochemical.
Conditions: not given
Summed up: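 Compound was preincubated 15 min at 22° C. with MKNK1 in 50 mM HEPES pH 7.5, 5 mM MgCl2, 1.0 mM DTT, then the reaction ran 30 min at 22° C. with 2 mM ATP and 0.06 μM biotinylated peptide (final).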
Turning to `CCOc1cc2[nH]ncc2cc1Nc1ncnc2sc3c(c12)CCC(C(=O)N1CCC(=O)CC1)C3` (racemic) [Example 211, (RS)-1-({4-[(6-Ethoxy-1H-indazol-5-yl)amino]-5,6,7,8-tetrahydro[1]benzothieno[2,3-d]pyrimidin-7-yl}carbonyl)piperidin-4-one], the IC50 was determined as 0.5 nM.

The assay is the same for the next values; noted with them: 2 mM ATP, after preincubation with MKNK1; read-out: MKNK1 IC50 (MKNK1 high ATP).
On to `CCN(C)C(=O)C1CCc2c(sc3ncnc(Nc4cc5cn[nH]c5cc4OC)c23)C1` (racemic) [Example 179, (RS)—N-Ethyl-4-[(6-methoxy-1H-indazol-5-yl)amino]-N-methyl-5,6,7,8-tetrahydro[1]benzothieno[2,3-d]pyrimidine-7-carboxamide], for which the IC50 is 0.7 nM. Consider `COc1cc2[nH]ncc2cc1Nc1ncnc2sc3c(c12)CCC(C(=O)N1CCC(C)(C)C1)C3` (racemic) [Example 180, (RS)-(3,3-Dimethylpyrrolidin-1-yl){4-[(6-methoxy-1H-indazol-5-yl)amino]-5,6,7,8-tetrahydro[1]benzothieno[2,3-d]pyrimidin-7-yl}methanone], for which the IC50 was determined as 0.8 nM. Take `COc1cc2[nH]ncc2cc1Nc1ncnc2sc3c(c12)CCC(C(=O)N(C)C1CC1)C3` (racemic) [Example 181, (RS)—N—Cyclopropyl-4-[(6-methoxy-1H-indazol-5-yl)amino]-N-methyl-5,6,7,8-tetrahydro[1]benzothieno[2,3-d]pyrimidine-7-carboxamide]: the IC50 worked out at 0.2 nM. Turning to `COc1cc2[nH]ncc2cc1Nc1ncnc2sc3c(c12)CCC(C(=O)N(C)CC1CC1)C3` (racemic) [Example 182, (RS)—N-(Cyclopropylmethyl)-4-[(6-methoxy-1H-indazol-5-yl)amino]-N-methyl-5,6,7,8-tetrahydro[1]benzothieno[2,3-d]pyrimidine-7-carboxamide], the IC50 amounted to 0.5 nM. With `COc1cc2[nH]ncc2cc1Nc1ncnc2sc3c(c12)CCC(C(=O)N1CCCC1)C3` (racemic) [Example 183, (RS)-{4-[(6-Methoxy-1H-indazol-5-yl)amino]-5,6,7,8-tetrahydro[1]benzothieno[2,3-d]pyrimidin-7-yl}(pyrrolidin-1-yl)methanone], the IC50 amounted to 3.2 nM. Consider `O=C(C1CCc2c(sc3ncnc(Nc4ccc5[nH]ncc5c4)c23)C1)N1CC=CC1` (racemic) [Example 184, (RS)-2,5-dihydro-1H-pyrrol-1-yl[4-(1H-indazol-5-ylamino)-5,6,7,8-tetrahydro[1]benzothieno[2,3-d]pyrimidin-7-yl]methanone], for which the IC50 came out at 12.4 nM. Turning to `O=C(C1CCc2c(sc3ncnc(Nc4ccc5[nH]ncc5c4)c23)C1)N1CCCC1CO` (racemic) [Example 186, (RS)-[2-(hydroxymethyl)pyrrolidin-1-yl][4-(1H-indazol-5-ylamino)-5,6,7,8-tetrahydro[1]benzothieno[2,3-d]pyrimidin-7-yl]methanone], the IC50 was 40.6 nM.

As to `O=C(C1CCc2c(sc3ncnc(Nc4ccc5[nH]ncc5c4)c23)C1)N1CCS(=O)(=O)CC1` (racemic) [Example 188, (RS)-(1,1-dioxidothiomorpholin-4-yl)[4-(1H-indazol-5-ylamino)-5,6,7,8-tetrahydro[1]benzothieno[2,3-d]pyrimidin-7-yl]methanone], the IC50 was found to be 22.6 nM. The same measure, in the same setting: to `CCN(CCC#N)C(=O)C1CCc2c(sc3ncnc(Nc4ccc5[nH]ncc5c4)c23)C1` (racemic) [Example 190, (RS)-N-(2-cyanoethyl)-N-ethyl-4-(1H-indazol-5-ylamino)-5,6,7,8-tetrahydro[1]benzothieno[2,3-d]pyrimidine-7-carboxamide] belongs 6 nM; to `O=C(C1CCc2c(sc3ncnc(Nc4ccc5[nH]ncc5c4)c23)C1)N1CCN(CC2CC2)CC1` (racemic) [Example 191, (RS)-[4-(cyclopropylmethyl)piperazin-1-yl][4-(1H-indazol-5-ylamino)-5,6,7,8-tetrahydro[1]benzothieno[2,3-d]pyrimidin-7-yl]methanone], 7.3 nM; to `O=C(C1CCc2c(sc3ncnc(Nc4ccc5[nH]ncc5c4)c23)C1)N1CCN2CCCCC2C1` (racemic) [Example 192, (RS)-[4-(1H-indazol-5-ylamino)-5,6,7,8-tetrahydro[1]benzothieno[2,3-d]pyrimidin-7-yl](octahydro-2H-pyrido[1,2-a]pyrazin-2-yl)methanone], 15.1 nM. The same measure, in the same setting: to `CN(CCCCO)C(=O)C1CCc2c(sc3ncnc(Nc4ccc5[nH]ncc5c4)c23)C1` (racemic) [Example 193, (RS)-N-(4-hydroxybutyl)-4-(1H-indazol-5-ylamino)-N-methyl-5,6,7,8-tetrahydro[1]benzothieno[2,3-d]pyrimidine-7-carboxamide] belongs 16.8 nM; to `O=C(C1CCc2c(sc3ncnc(Nc4ccc5[nH]ncc5c4)c23)C1)N1CCC(O)(C(F)(F)F)CC1` (racemic) [Example 194, (RS)-[4-hydroxy-4-(trifluoromethyl)piperidin-1-yl][4-(1H-indazol-5-ylamino)-5,6,7,8-tetrahydro[1]benzothieno[2,3-d]pyrimidin-7-yl]methanone], 12 nM.

Consider `N#CC1CCCN(C(=O)C2CCc3c(sc4ncnc(Nc5ccc6[nH]ncc6c5)c34)C2)C1` (racemic) [Example 196, (RS)-1-{[4-(1H-indazol-5-yalmino)-5,6,7,8-tetrahydro[1]benzothieno[2,3-d]pyrimidin-7-yl]carbonyl}piperidine-3-carbonitrile], for which the IC50 stood at 7.5 nM. As for `CN1CCN(C(=O)C2CCc3c(sc4ncnc(Nc5ccc6[nH]ncc6c5)c34)C2)CC1CCO` (racemic) [Example 197, (RS)-[3-(2-hydroxyethyl)-4-methylpiperazin-1-yl][4-(1H-indazol-5-ylamino)-5,6,7,8-tetrahydro[1]benzothieno[2,3-d]pyrimidin-7-yl]methanone], the IC50 amounted to 7.9 nM. Regarding `CC(=O)N(C)C1CCN(C(=O)C2CCc3c(sc4ncnc(Nc5ccc6[nH]ncc6c5)c34)C2)C1` (racemic) [Example 198, (RS)-N-(1-{[4-(1H-indazol-5-ylamino)-5,6,7,8-tetrahydro[1]benzothieno[2,3-d]pyrimidin-7-yl]carbonyl}pyrrolidin-3-yl)-N-methylacetamide], the 50% inhibitory concentration (IC50) is 10 nM.

In the case of `O=C(C1CCc2c(sc3ncnc(Nc4ccc5[nH]ncc5c4)c23)C1)N1CC(N2CCCCC2)C1` (racemic) [Example 200, (RS)-[4-(1H-indazol-5-ylamino)-5,6,7,8-tetrahydro[1]benzothieno[2,3-d]pyrimidin-7-yl][3-(piperidin-1-yl)azetidin-1-yl]methanone], the IC50 is 8.6 nM. Consider `O=C(CN1CCN(C(=O)C2CCc3c(sc4ncnc(Nc5ccc6[nH]ncc6c5)c34)C2)CC1)N1CCCC1` (racemic) [Example 201, (RS)-2-(4-{[4-(1H-indazol-5-ylamino)-5,6,7,8-tetrahydro[1]benzothieno[2,3-d]pyrimidin-7-yl]carbonyl}piperazin-1-yl)-1-(pyrrolidin-1-yl)ethanone], for which the IC50 worked out at 18.1 nM. As for `CN(CCCO)C(=O)C1CCc2c(sc3ncnc(Nc4ccc5[nH]ncc5c4)c23)C1` (racemic) [Example 202, (RS)-N-(3-hydroxypropyl)-4-(1H-indazol-5-ylamino)-N-methyl-5,6,7,8-tetrahydro[1]benzothieno[2,3-d]pyrimidine-7-carboxamide], the concentration for half-maximal inhibition (IC50) is 15 nM. For the molecule `COCC1CCCN1C(=O)C1CCc2c(sc3ncnc(Nc4ccc5[nH]ncc5c4)c23)C1` (racemic) [Example 204, (RS)-[4-(1H-indazol-5-ylamino)-5,6,7,8-tetrahydro[1]benzothieno[2,3-d]pyrimidin-7-yl][2-(methoxymethyl)pyrrolidin-1-yl]methanone], the IC50 came to 7.3 nM. As for `CN(C)C1CCN(C(=O)C2CCc3c(sc4ncnc(Nc5ccc6[nH]ncc6c5)c34)C2)C1` (racemic) [Example 205, (RS)-[3-(dimethylamino)pyrrolidin-1-yl][4-(1H-indazol-5-ylamino)-5,6,7,8-tetrahydro[1]benzothieno[2,3-d]pyrimidin-7-yl]methanone], the IC50 worked out at 7.3 nM.

For `CC(C)Oc1cc2[nH]ncc2cc1Nc1ncnc2sc3c(c12)CCC(C(=O)N1CC2(COC2)C1)C3` (racemic) [Example 206, (RS)-2-Oxa-6-azaspiro[3.3]hept-6-yl(4-{[6-(propan-2-yloxy)-1H-indazol-5-yl]amino}-5,6,7,8-tetrahydro[1]benzothieno[2,3-d]pyrimidin-7-yl)methanone], the IC50 turned out to be 1 nM. As for `COCCN(CCO)C(=O)C1CCc2c(sc3ncnc(Nc4cc5cn[nH]c5cc4OC)c23)C1` (racemic) [Example 207, (RS)—N-(2-Hydroxyethyl)-N-(2-methoxyethyl)-4-[(6-methoxy-1H-indazol-5-yl)amino]-5,6,7,8-tetrahydro[1]benzothieno[2,3-d]pyrimidine-7-carboxamide], the IC50 was determined as 0.5 nM.

As for `CC(C)Oc1cc2[nH]ncc2cc1Nc1ncnc2sc3c(c12)CCC(C(=O)N1CC(C#N)C1)C3` (racemic) [Example 208, (RS)-1-[(4-{[6-(Propan-2-yloxy)-1H-indazol-5-yl]amino}-5,6,7,8-tetrahydro[1]benzothieno[2,3-d]pyrimidin-7-yl)carbonyl]azetidine-3-carbonitrile], the IC50 came to 0.2 nM. Regarding `CCOc1cc2[nH]ncc2cc1Nc1ncnc2sc3c(c12)CCC(C(=O)N1CCCCC1)C3` (racemic) [Example 209, (RS)-{4-[(6-Ethoxy-1H-indazol-5-yl)amino]-5,6,7,8-tetrahydro[1]benzothieno[2,3-d]pyrimidin-7-yl}(piperidin-1-yl)methanone], the IC50 was 0.7 nM. In the case of `CCOc1cc2[nH]ncc2cc1Nc1ncnc2sc3c(c12)CCC(C(=O)O)C3` (racemic) [Example 210, (RS)-4-[(6-Ethoxy-1H-indazol-5-yl)amino]-5,6,7,8-tetrahydro[1]benzothieno[2,3-d]pyrimidine-7-carboxylic acid], the IC50 was found to be 73 nM.
